Converted amounts (≈) assume the structure as drawn. Read-outs that look alike come from different tables or passages of the source. Where a SMILES comes first, the peptide text is derived from it.
Columns and labels:
E. coli BW25113 ΔompF = type: cell-based, Escherichia coli; settings: Mueller–Hinton broth, 24 h, 37 °C, median
Procedure: (§1) The reduction of resazurin to resorufin was measured.

E. coli BW25113 ΔmdtM = type: cell-based, Escherichia coli; settings: Mueller–Hinton broth, 24 h, 37 °C, median
Procedure: as §1

E. coli BW25113 ΔsbmA = type: cell-based, Escherichia coli; settings: for Minimum inhibitory concentration, E. coli strain ΔsbmA: Mueller–Hinton broth, 24 h, 37 °C, median
Procedure: as §1

E. coli BW25113 = type: cell-based, Escherichia coli; settings: BW25113, 24 h
Procedure: as §1

S. aureus MDR CI 119 = experiment: Antimicrobial assay (MIC); type: cell-based, Staphylococcus aureus; settings: Mueller-Hinton broth supplemented with 0.9% NaCl
Procedure: as §1

S. aureus ATCC 25923 = experiment: Antimicrobial assay (MIC); type: cell-based, Staphylococcus aureus; settings: Mueller–Hinton broth supplemented with 0.9% NaCl
Procedure: as §1

S. aureus ATCC 6538P = experiment: Antimicrobial assay (MIC); type: cell-based, Staphylococcus aureus; settings: Mueller-Hinton broth supplemented with 0.9% NaCl
Procedure: as §1

S. aureus ATCC 29213 = experiment: Antimicrobial assay (MIC); type: cell-based, Staphylococcus aureus; settings: Mueller-Hinton broth supplemented with 0.9% NaCl
Procedure: as §1

[1] = tested on: VicBac[1–22]-resistant E. coli MDR 1057 strain; settings: Mueller-Hinton broth supplemented with 0.9% NaCl; strain selected 14 days with VicBac[1-22]; cross-resistance
Procedure: (§2) Bacterial test cultures were grown in the Mueller-Hinton broth (MH; Sigma, St. Louis, MO, USA) at 37 °C to mid-log phase and then diluted with the 2× MH medium supplemented with 1.8% NaCl or without salt so that to reach a final cell concentration of 10^6 CFU/mL. 50 µL of the obtained bacterial suspension were added to aliquots of 50 µL of the peptide solutions serially diluted with sterilized 0.1% bovine serum albumin (BSA) in 96-well flat-bottom polystyrene microplates (Eppendorf #0030730011, Hamburg, Germany). […] To verify MIC values, the respiratory activity of the bacteria was determined. Briefly, 20 µL of 0.1 mg/mL resazurin (a redox indicator; Sigma, St. Louis, MO, USA) was added to the wells after 24 h of incubation, and the plate was incubated for an additional two hours. The reduction of resazurin to resorufin was measured. […] The results were expressed as the median values determined based on at least three independent experiments performed in triplicate.
(§3) Resistance induction experiments were performed using the previously described method. Briefly, on day one, the overnight culture of wild-type bacteria was diluted with the 2× MH broth supplemented with 1.8% NaCl to reach a final cell concentration of 10^6 CFU/mL. 50 µL of the obtained bacterial suspension were added to aliquots of 50 µL of the peptide solutions serially diluted with the sterilized 0.1% BSA in 96-well flat-bottom polystyrene microplates. After incubation for 20 ± 2 h at 37 °C and 950 rpm, MICs were determined as described above. For each subsequent daily transfer, 2–4 μL of the inoculum taken from the first well containing a sub-inhibitory drug concentration were diluted with 2 mL of the fresh 2× MH broth supplemented with 1.8% NaCl. […] 14 repeated passages in the presence of antimicrobial agents were made for each bacterial strain during the experiment. Bacteria that grew at the highest concentration of AMPs on the final day were passaged a further 3 times on drug-free agar plates before determining the final MIC value.

E. coli MDR CI 1057 = tested on: E. coli MDR CI 1057
Procedure: as §2, §3

E. coli MDR 1057 = settings: MH broth with 0.9% NaCl, 14 passages with the same agent (VicBac[1–22]: after 10 passages)
Procedure: Resistance induction experiments were performed using the previously described method. Briefly, on day one, the overnight culture of wild-type bacteria was diluted with the 2× MH broth supplemented with 1.8% NaCl to reach a final cell concentration of 10^6 CFU/mL. 50 µL of the obtained bacterial suspension were added to aliquots of 50 µL of the peptide solutions serially diluted with the sterilized 0.1% BSA in 96-well flat-bottom polystyrene microplates. After incubation for 20 ± 2 h at 37 °C and 950 rpm, MICs were determined as described above. For each subsequent daily transfer, 2–4 μL of the inoculum taken from the first well containing a sub-inhibitory drug concentration were diluted with 2 mL of the fresh 2× MH broth supplemented with 1.8% NaCl. […] Bacteria that grew at the highest concentration of AMPs on the final day were passaged a further 3 times on drug-free agar plates before determining the final MIC value.

B. subtilis B-886 = experiment: Antimicrobial assay (MIC); type: cell-based, Bacillus subtilis; settings: Mueller-Hinton broth supplemented with 0.9% NaCl
Procedure: as §1

## CC[C@H](C)[C@H](NC(=O)[C@H](CCCNC(=N)N)NC(=O)[C@@H](N)CCCNC(=N)N)C(=O)N[C@@H](CCCNC(=N)N)C(=O)N[C@@H](CCCNC(=N)N)C(=O)N1CCC[C@H]1C(=O)N[C@@H](CCCNC(=N)N)C(=O)N[C@@H](CC(C)C)C(=O)N1CCC[C@H]1C(=O)N[C@@H](CCCNC(=N)N)C(=O)N1CCC[C@H]1C(=O)N[C@@H](CCCNC(=N)N)C(=O)N[C@H](C(=O)N1CCC[C@H]1C(=O)N[C@@H](CCCNC(=N)N)C(=O)N1CCC[C@H]1C(=O)N[C@@H](CCCNC(=N)N)C(=O)N[C@H](C(=O)N1CCC[C@H]1C(=O)N1CCC[C@H]1C(=O)N[C@@H](CCCNC(=N)N)C(=O)N[C@H](C(=O)N1CCC[C@H]1C(=O)N[C@@H](CCCNC(=N)N)C(=O)N1CCC[C@H]1C(=O)N[C@H](C(=O)N[C@@H](CC(C)C)C(=O)N1CCC[C@H]1C(=O)N1CCC[C@H]1C(=O)N1CCC[C@H]1C(=O)N[C@@H](CCCNC(=N)N)C(=O)N[C@H](C(=O)N1CCC[C@H]1C(=O)N[C@@H](Cc1ccccc1)C(=O)N1CCC[C@H]1C(=O)N[C@@H](CCCNC(=N)N)C(=O)N[C@@H](Cc1ccccc1)C(=O)N1CCC[C@H]1C(=O)N[C@@H](CCCNC(=N)N)C(N)=O)C(C)C)C(C)C)[C@@H](C)CC)[C@@H](C)CC)C(C)C [VicBac[1-39]] (H-RRIRRPRLPRPRVPRPRIPPRIPRPVLPPPRVPFPRFPR-NH2; N-terminus assumed)
E. coli BW25113 ΔompF; 0.9% NaCl: +
  Minimum inhibitory concentration, E. coli strain ΔompF: 1 µM (≈ 4.82 µg/mL)
E. coli BW25113 ΔompF; 0.9% NaCl: −
  Minimum inhibitory concentration, E. coli strain ΔompF: 1 µM (≈ 4.82 µg/mL)
E. coli BW25113 ΔmdtM; 0.9% NaCl: +
  Minimum inhibitory concentration, E. coli strain ΔmdtM: 1 µM (≈ 4.82 µg/mL)
E. coli BW25113 ΔmdtM; 0.9% NaCl: −
  Minimum inhibitory concentration, E. coli strain ΔmdtM: 2 µM (≈ 9.64 µg/mL)
E. coli BW25113 ΔsbmA; Mueller–Hinton broth with 0.9% NaCl
  increase in MIC against ΔsbmA strain versus BW25113: 2 fold
E. coli BW25113 ΔsbmA; 0.9% NaCl: +
  Minimum inhibitory concentration, E. coli strain ΔsbmA: 2 µM (≈ 9.64 µg/mL)
E. coli BW25113 ΔsbmA; 0.9% NaCl: −
  Minimum inhibitory concentration, E. coli strain ΔsbmA: 2 µM (≈ 9.64 µg/mL)
E. coli BW25113
  Minimum inhibitory concentration, E. coli strain BW25113: 1 µM (≈ 4.82 µg/mL)
S. aureus MDR CI 119
  MIC, S. aureus MDR CI 119: > 32 µM
S. aureus ATCC 25923
  inhibition of S. aureus ATCC 25923: could not inhibit
S. aureus ATCC 6538P
  MIC, S. aureus ATCC 6538P: 0.25 µM (≈ 1.2 µg/mL)
S. aureus ATCC 29213
  MIC, S. aureus ATCC 29213: > 32 µM
[1]
  Minimum inhibitory concentration E.coli MDR 1057 14 days with VicBac [1-22]: 2 µM
E. coli MDR CI 1057; Mueller-Hinton broth supplemented with 0.9% NaCl (Figure 3A)
  MIC, E. coli MDR CI 1057: 1 µM (≈ 4.82 µg/mL)
E. coli MDR CI 1057; Mueller-Hinton broth supplemented with 0.9% NaCl, after 14 passages without antimicrobial agents
  Minimum inhibitory concentration E.coli MDR 1057 14 days w/o AMP: 1 µM (≈ 4.82 µg/mL)
E. coli MDR CI 1057; Mueller-Hinton broth supplemented with 0.9% NaCl, before passages
  Minimum inhibitory concentration E.coli MDR 1057 0 days: 1 µM (≈ 4.82 µg/mL)
E. coli MDR 1057
  increase in MIC value after serial passage selection: did not change
B. subtilis B-886
  MIC, B. subtilis B-886: 16 µM (≈ 77.1 µg/mL)
